Experimental data taken from patent US20240009246A1, “CELLULAR-ANTIMICROBIAL COMBINATION COMPOSITION AND METHODS FOR TREATMENT OF BACTERIAL INFECTIONS OF JOINTS AND SOFT TISSUES” (priority 2021, published 2024).
In brackets after ≈: the same amount, converted by molar mass. Like-named read-outs stand apart in the source and are kept apart here.

What was measured:
[1] = in vitro cytotoxic activity of antibiotics against dog chondrocytes; format: cell-based; parameters: IC50 (cytotoxicity): unit not given beside the values
Description: (§1) Table 1 and 2 represent in vitro evaluation of the cytotoxic activity of different conventional antibiotics, as assessed for toxicity against dog cells (Table 1) or horse cells (Table 2). Similar toxicity profiles would also be anticipated for human cells. The antibiotics with the highest IC50 values are considered non-cytotoxic, while those with lower values are considered more cytotoxic, and unsuitable for co-administration with activated MSC or activated iMSCs.

[2] = tested on: Synovial Cells; assay: in vitro cytotoxic activity of antibiotics against horse synovial cells; format: cell-based; conditions: for IC50: Equus caballus, Synovial cell, read-out: Concentration (equine IC50)
Description: (§2) Table 1 and 2 represent in vitro evaluation of the cytotoxic activity of different conventional antibiotics, as assessed for toxicity against dog cells (Table 1) or horse cells (Table 2). Similar toxicity profiles would also be anticipated for human cells.
(§3) The antibiotics with the highest IC50 values are considered non-cytotoxic, while those with lower values are considered more cytotoxic, and unsuitable for co-administration with activated MSC or activated iMSCs. For example, amikacin and enrofloxacin are more cytotoxic to joint cells (e.g. synovial cells and chondrocytes) than vancomycin, and should not be used for preparing the antibiotic plus activated MSCs formulations of uses herein, whereas vancomycin is one of the preferred antibiotics for these formulations for treating gram+ infections.
(§4) Table 2 represents and overview of equine IC50s of certain antibiotics of use herein

[3] = in vitro cytotoxic activity of antibiotics against dog synoviocytes; format: cell-based
Description: as §1

[4] = tested on: Chondrocytes; assay: in vitro cytotoxic activity of antibiotics against horse chondrocytes; format: cell-based; conditions: for IC50: Equus caballus, Chondrocyte, read-out: Concentration (equine IC50)
Description: as §2, §3, §4

[5] = tested on: CHONDROCYTES; assay: in vitro cytotoxic activity of antibiotics against dog chondrocytes; format: cell-based; parameters: IC50 (cytotoxicity): unit not given beside the values
Description: as §1

[6] = tested on: MRSA strain of Staphylococcus aureus; assay: equine model of septic arthritis (joint infected with MRSA), intra-articular treatment
Description: In one example, a model of septic arthritis was studied. […] Certain objectives of this study were to determine if intra-articular (IA) administration of TLR activated MSCs (e.g. bone marrow derived MSCs) improve clinical outcomes and reduce bacterial burden and biomarkers of joint inflammation in an equine model of septic arthritis compared to conventional antimicrobial therapy alone. It was hypothesized that activated MSC therapy in combination with conventional antibiotic therapy could improve resolution of septic arthritis as assessed by lameness evaluation, joint circumference, imaging, and more rapid resolution of bacterial infection and inflammatory biomarkers.
In this example, four horses, each experimentally infected in one joint with MRSA strain of Staphylococcus aureus in one joint were set up for the study. Treatment started 24 h after introduction of the infective agent, two antibiotic only (control); two in TLR3 MSC plus antibiotic. All horses were treated with vancomycin (e.g. 100 mg) injected directly into the joint. The control 2 horses were just treated with vancomycin. The experimental 2 horses were (TLR MSC horses) were also treated with activated equine allogeneic MSC (e.g. 2×10^6) injected into joint immediately after vancomycin. These treatments were repeated three times at 3-day intervals for MSC horse, only twice for control horse (euthanized on day 7). The treatment responses were evaluated by cultured synovial fluid from joints (bacti counts, cell counts) and joint circumference and swelling. […] The experimental horses receiving the combined treatment were euthanized on day 14 to assess joint parameters and bacterial counts.
Synovial fluid was collected from each horse in the study, at the indicated time points, starting the day before infection (DO) and continuing until day 7. Control horses treated with vancomycin injections into the joint only, while TLR-MSC horse was treated with both activated MSC and vancomycin, both injected into the joint. The vancomycin dose was 100 mg per injection, while the dose of TLR3 activated MSC was 2×10^6 cells per injection, consisting of activated, allogeneic MSC obtained from bone marrow of unrelated healthy horses.
Synovial fluid samples from the two horses described in FIGS. 1A and 1B were also evaluated for their concentration of live MRSA bacteria. Collected samples were processed to disaggregate the bacteria in the synovial fluid, then the sample was serially diluted in PBS and then plated on quadrant plates with LB agar.
Skeletally mature horses, (male Quarter Horses, 3 years of age), deemed healthy by physical examination, bloodwork (complete blood count, serum biochemical panel), and without evidence of tarsal osteoarthritis determined radiographically were treatment recipients.

Compound `NCC[C@H](O)C(=O)N[C@@H]1C[C@H](N)[C@@H](O[C@H]2O[C@H](CN)[C@@H](O)[C@H](O)[C@H]2O)[C@H](O)[C@H]1O[C@H]1O[C@H](CO)[C@@H](O)[C@H](N)[C@H]1O` [Amikacin] has an IC50 ([1]; dog) of 2740 µg/mL (≈ 4.68 mM), an IC50 ([2]; equine synovial cells) of 799 µg/mL (≈ 1.36 mM) and an IC50 ([3]; dog) of 2260 µg/mL (≈ 3.86 mM). It also gave an IC50 ([4]; equine chondrocytes) of less than 390 µg/mL.

Compound `CC1(C)S[C@@H]2[C@H](NC(=O)[C@H](N)c3ccc(O)cc3)C(=O)N2[C@H]1C(=O)O` [Amoxicillin] has an IC50 ([2]; equine synovial cells) greater than 25000 µg/mL and an IC50 ([4]; equine chondrocytes) of 14000 µg/mL (≈ 38.3 mM).

In the case of `Cc1nnc(SCC2=C(C(=O)O)N3C(=O)[C@@H](NC(=O)Cn4cnnn4)[C@H]3SC2)s1` [Cefazolin], the IC50 ([1]; dog) is reported as 1670 µg/mL (≈ 3.67 mM), the IC50 ([2]; equine synovial cells) is reported as 1160 µg/mL (≈ 2.54 mM) and the IC50 ([3]; dog) is reported as 1480 µg/mL (≈ 3.26 mM). The IC50 ([4]; equine chondrocytes) was 3950 µg/mL (≈ 8.69 mM).

Compound `CC(C)(O/N=C(\C(=O)N[C@@H]1C(=O)N2C(C(=O)[O-])=C(C[n+]3ccccc3)CS[C@H]12)c1csc(N)n1)C(=O)O` [Ceftazidime] has an IC50 ([1]; dog) of 3160 µg/mL (≈ 5.78 mM), an IC50 ([2]; equine synovial cells) of 3360 µg/mL (≈ 6.15 mM) and an IC50 ([3]; dog) of 1620 µg/mL (≈ 2.97 mM). For the same compound, the IC50 ([4]; equine chondrocytes) was 3590 µg/mL (≈ 6.57 mM).

With `CO/N=C(\C(=O)N[C@@H]1C(=O)N2C(C(=O)O)=C(CSC(=O)c3ccco3)CS[C@H]12)c1csc(N)n1` [Ceftiofur Sodium] the IC50 ([2]; equine synovial cells) was greater than 25000 µg/mL and the IC50 ([4]; equine chondrocytes) was 4270 µg/mL.

With `C[C@H]1c2cccc(O)c2C(=O)C2=C(O)[C@]3(O)C(=O)C(C(N)=O)=C(O)[C@@H](N(C)C)[C@@H]3[C@@H](O)[C@@H]21` [Doxycycline] the IC50 ([2]; equine synovial cells) was 711 µg/mL (≈ 1.6 mM) and the IC50 ([4]; equine chondrocytes) was 1030 µg/mL (≈ 2.32 mM).

For `CCN1CCN(c2cc3c(cc2F)c(=O)c(C(=O)O)cn3C2CC2)CC1` [Enrofloxacin], the “IC50 (cytotoxicity)” value [5] was “.078< × <1.56”, the IC50 ([3]; dog) was 1250 µg/mL (≈ 3.47 mM) and the IC50 ([4]; equine chondrocytes) was 4590 µg/mL (≈ 12.8 mM).

Compound `CS(=O)(=O)c1ccc([C@@H](O)[C@@H](CF)NC(=O)C(Cl)Cl)cc1` [Florfenicol] has an IC50 ([2]; equine synovial cells) of 2960 µg/mL (≈ 8.25 mM) and an IC50 ([4]; equine chondrocytes) of 2190 µg/mL (≈ 6.11 mM).

`C[C@@H](O)[C@H]1C(=O)N2C(C(=O)O)=C(SCCN=CN)C[C@H]12` [Imipenem] gave an IC50 ([2]; equine synovial cells) greater than 25000 µg/mL and an IC50 ([4]; equine chondrocytes) greater than 25000 µg/mL.

With `CC1(C)S[C@@H]2[C@H](NC(=O)Cc3ccccc3)C(=O)N2[C@H]1C(=O)[O-].[K+]` [Potassium penicillin] the “Concentration (equine IC50)” value ([4]; equine chondrocytes) was 11.61 mg/mL.

`NC[C@H]1O[C@H](O[C@H]2[C@H](O)[C@@H](O[C@H]3O[C@H](CO)[C@@H](O)[C@H](N)[C@H]3O)[C@H](N)C[C@@H]2N)[C@H](N)C[C@@H]1O` [Tobramycin] gave an IC50 ([2]; equine synovial cells) of 9490 µg/mL (≈ 20.3 mM) and an IC50 ([4]; equine chondrocytes) greater than 25000 µg/mL.

With `CN[C@H](CC(C)C)C(=O)N[C@H]1C(=O)N[C@@H](CC(N)=O)C(=O)N[C@H]2C(=O)N[C@H]3C(=O)N[C@H](C(=O)N[C@H](C(=O)O)c4cc(O)cc(O)c4-c4cc3ccc4O)[C@H](O)c3ccc(c(Cl)c3)Oc3cc2cc(c3O[C@@H]2O[C@H](CO)[C@@H](O)[C@H](O)[C@H]2O[C@H]2C[C@](C)(N)[C@H](O)[C@H](C)O2)Oc2ccc(cc2Cl)[C@H]1O` [Vancomycin] the “overall outcome of joint infection” value ([6]; control euthanized day 7, combined treatment day 14) was “uncontrolled joint infection”, the “circumference of the infected tarsocrural joint (effusion)” value ([6]; infected joint vs uninfected joint) was “remained very swollen” and the “body temperature (fever) course” value ([6]; over time after MRSA joint infection) was “body temperature spikes were noted at two time points”. The “body temperature in peaks” value ([6]; spikes) was “around 102 ° F”, the IC50 ([1]; dog chondrocytes, read-out: IC50 (cytotoxicity)) was 8640 µg/mL (≈ 5.97 mM) and the IC50 [2] was 7810 µg/mL (≈ 5.39 mM). It also gave an IC50 ([3]; dog synoviocytes, read-out: IC50 (cytotoxicity)) of 13800 µg/mL (≈ 9.5 mM) and an IC50 [4] of 7310 µg/mL (≈ 5.04 mM).

With Ampicillin sulbactam the “Concentration (equine IC50)” value ([2]; equine synovial cells) was greater than 25 mg/mL and the “Concentration (equine IC50)” value ([4]; equine chondrocytes) was greater than 25 mg/mL.

For Gentamicin, the “Concentration (equine IC50)” value ([2]; equine synovial cells) was 0.5125 mg/mL and the “Concentration (equine IC50)” value ([4]; equine chondrocytes) was 0.7083 mg/mL.

For Neomycin, the “Concentration (equine IC50)” value ([2]; equine synovial cells) was 6.274 mg/mL and the “Concentration (equine IC50)” value ([4]; equine chondrocytes) was 0.8219 mg/mL.
